Like-named read-outs stand apart in the source and are kept apart here.
Key:
[1] = test system: Breast cancer (primary), HER2 +; settings: single patient; neighbouring lines without a result appear to be partners of the same regimen; cited from earlier work
[2] = test system: Champions Tumor Graft models CTG-1171; settings: cited from earlier work
[3] = test system: Human stomach cancer cell line, NCI-N87; assay: Antitumor evaluation in model with tumor recurrence following administration of trastuzumab emtansine (NCI-N87 subcutaneous xenograft); assay type: in vivo, nude mice (BALB/cAJcl-nu/nu); settings: for TV (mm^3) on Day43 Mean ± SD: Step 2, Day 43, Compound 1 60 mg/kg/day p.o. Days 1-42, trastuzumab emtansine 10 mg/kg/day i.v. Days 1, 22, n=9
Method: Human stomach cancer cell line, NCI-N87, was obtained from American Type Culture Collection (ATCC). The cell line was cultured in a RPMI-1640 medium (containing 4.5 g/L glucose, 10 mM HEPES and 1 mM sodium pyruvate) (Wako Pure Chemical Corporation) containing 10% fetal bovine serum (FBS) at 37° C. in a 5% CO2 incubator.
The NCI-N87 cells were resuspended in PBS to a concentration of 10^8 cells/mL. A 1-mL tuberculin syringe with a 25G needle was used to subcutaneously transplant […] cells/0.1 mL each of the cell suspension into the right chests of 6-week-old nude mice (BALB/cAJcl-nu/nu, CLEA Japan, Inc.).
The tumor diameter was measured with a digital caliper by holding the long diameter and the short diameter of the tumor between the measuring surfaces of the digital caliper for each mouse. Measurements took place at a frequency of once in 2-5 days including the day of group sorting and the day of judgement. The tumor volume (TV) was calculated based on these long and short diameters. The relative tumor volume (RTV) and the rate of change in the relative tumor volume (T/C) were calculated from the calculated tumor volume. TV, RTV and T/C were calculated according to the following equations. Tumor volume TV(mm^3)=(Long diameter, mm)×(Short diameter, mm)×(Short diameter, mm)/2 Relative tumor volume RTV=(TV on day of measurement)/(TV on day of dividing into groups) Rate of change in relative tumor volume T/C (%)=(Mean RTV of treated group)/(Mean RTV of control group)×100
The tumor diameters and weights were measured with time to calculate TV and BWC.
Eighteen nude mice confirmed with tumor recurrence in Step 1 were selected, and 9 animals were assigned to each group by equal distribution (MiSTAT (ver.2.0)) as follows such that the mean TV of each group was uniform (Day 1, i.e., Day 85 as counted from Step 1). Compound 1 was prepared to 6 mg/mL with a 0.1N HCl solution, and the resultant was orally administered once a day on Days 1-42 consecutively. […] The tumor diameters and weights were measured with time to calculate TV and BWC.

[4] = test system: Champions Tumor Graft models CTG-1171; assay: Anti-tumor effect using cancer patient-derived cells (CTG-1171 PDX, Test Example 2); assay type: in vivo, nude mice (Athymic Nude-Foxn1nu)
Method: Champions Tumor Graft models CTG-1171 (Champions Oncology, Inc.) having the profiles shown in Tables 5-8 were transplanted into Stock mice (Athymic Nude-Foxn1^nu, Envigo). Once the tumor volume of the transplanted tumor reached 1,000-1,500 mm^3, the tumor was taken out and a fragment thereof of about 65 mm^3 was subcutaneously transplanted into the left side of 7-week-old nude mice (Athymic Nude-Foxn1^nu, Envigo). Tumor diameters were measured twice a week with a digital caliper. TV was calculated according to the following equation. TV (mm^3)=Width (mm)^2×Length (mm)×0.52
Ten individuals whose tumor volumes reached 150-300 mm^3 were assigned to each group (Day 0).
(§1) Compound 1 was prepared to have a predetermined concentration with a 0.1N HCl solution, and the resultant was orally administered once a day on Days 0-27 consecutively. Tumor diameters were measured twice a week with a digital caliper. The rate of change in the weight of the mouse was calculated in the same manner as Test example 1 above. Mice observed with weight loss by 10% or more as compared to Day 0 were given DietGel (registered trademark).
The anti-tumor effect of the drug was evaluated according to tumor growth inhibition (TGI), which was calculated by the following equation. TGI=(100%×[1−(TV of treated group on Day 27−TV of treated group on Day 0)/(TV of control group on Day 27−TV of control group on Day 0)])

[5] = Body weight change / toxicity judgement in CTG-1171 PDX model (Test Example 2); assay type: in vivo; settings: 60 mg/kg/day p.o. Days 0-27
Method: as §1
In addition, the presence of toxicity was judged as follows: a dose observed with a weight loss of 20% or more or a mortality rate of 10% or more was judged to have exceeded the MTD (maximum tolerated dose) and thus toxicity was present.

[6] = value on first line of a two-line group (apparent combination): Capecitabine 5 with Lapatinib 1 mg/kg/day, once a day for 21 days p.o., Gemcitabine with Nab-paclitaxel, dose not given

Which “Result (treatment history before acquiring tumor tissue)” value [1] does the source give for Bevacizumab here?
The value was “No response”.

Which “TGI (%)” value [2, 6] does the source give for CCCCCOC(=O)Nc1nc(=O)n([C@@H]2O[C@H](C)[C@@H](O)[C@H]2O)cc1F [Capecitabine] here?
Its value is 96%.

With CS(=O)(=O)CCNCc1ccc(-c2ccc3ncnc(Nc4ccc(OCc5cccc(F)c5)c(Cl)c4)c3c2)o1 [Lapatinib] as the compound, how does the “Result (treatment history after acquiring tumor tissue)” value [1] read?
Its value is “No response”.

With C=CC(=O)N1CCC[C@@H](n2nc(C(=O)Nc3ccc(CC(=O)N(C)C)c(C)c3C)c3c(N)ncnc32)C1 [Compound 1, (R)-1-(1-acryloylpiperidine-3-yl)-4-amino-N-(4-(2-(dimethylamino)-2-oxoethyl)-2,3-dimethylphenyl)-1H-pyrazolo[3,4-d]pyrimidine-3-carboxamide] as the compound, how does the “TV versus trastuzumab emtansine-administered group on day of judgement (Day 43)” value ([3]; Aspin-Welch's t-test, Compound 1 60 mg/kg/day p.o.) read?
The value was “significantly lower”.

And the “T/C (%)” value ([3]; Day 43, mean TV of Compound 1 group / mean TV of trastuzumab emtansine group × 100, 60 mg/kg/day p.o. Days 1-42)?
Its value is 25.4%.

And the “TV (mm^3) on Day43 Mean ± SD” value [3]?
Its value is 107.29 ± 37.76 mm^3.

What about the “TV versus control-administered group on Day 27” value ([4]; 60 mg/kg/day p.o. Days 0-27) of the same compound?
The value was “significantly lower”.

What about the “TV (mm^3) on Day0 Mean ± SD” value ([4]; Day 0 (group assignment, baseline), n=10) of the same compound?
The value was 196 ± 22 mm^3.

What about the “TV (mm^3) on Day27 Mean ± SD” value ([4]; Day 27, 60 mg/kg/day p.o. Days 0-27, n=10) of the same compound?
Its value is 162 ± 27 mm^3.

What about the “TGI (%)” value ([4]; Day 27 versus Day 0, versus control, 60 mg/kg/day p.o. Days 0-27) of the same compound?
Its value is 112%.

What about the “decrease of average rate of change in the weight during the administration period” value [5] of the same compound?
Its value is < 5%.

And the “judgement of the dose (tolerability)” value [5]?
Its value is “tolerable”.

What about the “BWG(%) on Day27 Mean” value ([5]; Day 27) of the same compound?
Its value is −0.60%.

For Nc1ccn([C@@H]2O[C@H](CO)[C@@H](O)C2(F)F)c(=O)n1 [Gemcitabine], which “TGI (%)” value [2, 6] is on record?
The value was 28%.

With Trastuzumab emtansine as the compound, how does the “tumor course after administration of trastuzumab emtansine (FIG. 1)” value ([3]; Step 1, 10 mg/kg/day i.v. on Days 1, 22, 43, 64, n=36) read?
Its value is “tumor shrinkage was confirmed for once by administration of trastuzumab emtansine but tumor recurrence was confirmed on Day 85”.

What about the “TV (mm^3) on Day43 Mean ± SD” value [3] of the same compound?
Its value is 421.92 ± 143.78 mm^3.

What about the “Result (treatment history after acquiring tumor tissue)” value [1] of the same compound?
The value was “No response”.

And the “Result (treatment history before acquiring tumor tissue)” value [1]?
The value was “No response”.

With CO[C@H]1C[C@@H]2CC[C@@H](C)[C@@](O)(O2)C(=O)C(=O)N2CCCC[C@H]2C(=O)O[C@H]([C@H](C)C[C@@H]2CC[C@@H](OC(=O)C(C)(CO)CO)[C@H](OC)C2)CC(=O)[C@H](C)/C=C(\C)[C@@H](O)[C@@H](OC)C(=O)[C@H](C)C[C@H](C)/C=C/C=C/C=C/1C [Temsirolimus] as the compound, how does the “TGI (%)” value ([2]; single agents, Nab-paclitaxel 0.5 mg/kg/day once a week for 3 weeks i.v., Temsirolimus 0.5 once a week for 5 weeks i.p., Trastuzumab 15 once a week for 8 weeks i.v., Afatinib dose not given) read?
The value was 59%.

For CC(=O)O[C@@]12CO[C@@H]1C[C@H](O)[C@@]1(C)C(=O)[C@H](O)C3=C(C)[C@@H](OC(=O)[C@H](O)[C@@H](NC(=O)OC(C)(C)C)c4ccccc4)C[C@@](O)([C@@H](OC(=O)c4ccccc4)[C@H]21)C3(C)C [Docetaxel], which “Result (treatment history before acquiring tumor tissue)” value [1] is on record?
The value was “Responded”.

Which “Result (treatment history after acquiring tumor tissue)” value [1] does the source give for C=C1C[C@@H]2CC[C@@]34C[C@H]5O[C@H]6[C@@H](O3)[C@H]3O[C@H](CC[C@@H]3O[C@H]6[C@H]5O4)CC(=O)C[C@@H]3[C@@H](OC)[C@@H](C[C@H](O)CN)O[C@H]3C[C@H]3O[C@@H](CC[C@@H]1O2)C[C@@H](C)C3=C [Eribulin] here?
Its value is “No response”.
